Blank lines part the entries; values can stand above or below the molecule they belong to.
What was measured:
[1] = biological target: T1, purified recombinant COX-2 (Homo sapiens, UniProt P35354); experiment: COX-2 enzyme based assay; assay type: biochemical; conditions: NA = No activity, read-out: % Inhibition in rEnzyme Assay COX-2
T1 sequence (P35354 18-604): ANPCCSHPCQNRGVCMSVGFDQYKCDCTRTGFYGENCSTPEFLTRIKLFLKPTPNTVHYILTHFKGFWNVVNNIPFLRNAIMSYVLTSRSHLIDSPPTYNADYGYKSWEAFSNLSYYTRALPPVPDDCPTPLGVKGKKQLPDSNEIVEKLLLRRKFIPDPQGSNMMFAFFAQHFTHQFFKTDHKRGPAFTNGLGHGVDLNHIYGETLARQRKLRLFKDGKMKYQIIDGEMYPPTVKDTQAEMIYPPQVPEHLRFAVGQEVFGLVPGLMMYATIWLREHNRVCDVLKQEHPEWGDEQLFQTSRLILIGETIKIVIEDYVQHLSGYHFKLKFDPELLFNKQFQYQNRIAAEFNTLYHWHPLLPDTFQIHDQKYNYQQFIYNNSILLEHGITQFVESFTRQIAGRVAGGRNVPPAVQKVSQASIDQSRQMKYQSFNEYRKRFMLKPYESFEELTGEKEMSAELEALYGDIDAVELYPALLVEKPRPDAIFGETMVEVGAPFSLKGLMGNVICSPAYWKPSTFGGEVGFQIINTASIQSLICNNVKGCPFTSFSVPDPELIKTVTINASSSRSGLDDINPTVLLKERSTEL
Summary of the method: (§1)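 Purified recombinant enzyme converted arachidonic acid to PGH2 at 37° C with or without test compound; stopped with 1M HCl after 2 minutes. PGH2 reduced by SnCl2 to PGF2α, quantified by enzyme immunoassay; inhibition inferred from reduced prostanoid.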

NCI-H460 = experiment: Anti-cancer screen (MTT), NCI-H460; assay type: cell-based; conditions: Homo sapiens, NCI-H460, 48 hours
Procedure: (§2) Experimental drugs are screened for anti-cancer activity in three cell lines for their GI50, TG1 and LC50 values (using 5 concentrations for each compound). The cell lines are maintained in DMEM containing 10% fetal bovine serum. 96 well microtiter plates are inoculated with cells in […] for 24 hours at 37° C., 5% CO2, 95% air and 100% relative humidity. 5000 HCT116 cells/well, 5000 NCIH460 cells/well, 10000 U251 cells/well and 5000 MDAMB231 cells/well are plated. A separate plate with these cell lines is also inoculated to determine cell viability before the addition of the compounds (T0).
(§3) Addition of Experimental Drugs
(§4) Following 24-hour incubation, experimental drugs are added to the 96 well plates. Each plate contains one of the above cell lines and the following in triplicate: 5 different concentrations (0.01, 0.1, 1, 10 and 100 μM) of 4 different compounds, appropriate dilutions of a cytotoxic standard and control (untreated) wells. Compounds are dissolved in dimethylsulfoxide (DMSO) to make 20 mM stock solutions, on the day of drug addition and frozen at −20° C. Serial dilutions of these 20 mM stock solutions are made in complete growth medium such that 100 μL of these drug solutions in medium, of final concentrations equaling 0.01, 0.1, 1, 10 and 100 μM can be added to the cells in triplicate. Standard drugs whose anti-cancer activity has been well documented and which are regularly used are doxorubicin and SAHA.
(§5) Cells are incubated with compounds for 48 hours followed by the addition of 10 μL 3-(4,5-Dimethyl-2-thiazolyl)-2,5-diphenyl-2H-tetrazolium (MTT) solution per well and a subsequent incubation at 37° C., 5% CO2, 95% air and 100% relative humidity, protected from light. After 4 hours, well contents are aspirated carefully followed by addition of 150 μL DMSO per well. Plates are agitated to ensure solution of the formazan crystals in DMSO and absorbance read at 570 nm.
(§6) Calculation of GI50, TGI and LC50
(§7) Percent growth is calculated for each compound's concentration relative to the control and zero measurement wells (T0; viability right before compound addition).
(§8) If a test well's O.D. value is greater than the T0 measurement for that cell line % Growth=(test−zero)/(control−zero)×100
(§9) If a test well's O.D. value is lower than the T0 measurement for that cell line, then % Growth=(test−zero)/zero×100 Plotting % growth versus experimental drug concentration, GI50 is the concentration required to decrease % growth by 50%; TGI is the concentration required to decrease % growth by 100% and LC50 is the concentration required to decrease % growth by 150%.

HCT-116 = experiment: Anti-cancer screen (MTT), HCT-116; assay type: cell-based; conditions: Homo sapiens, HCT-116, 48 hours
Procedure: as §2, §3, §4, §5, §6, §7, §8, §9

[2] = biological target: purified recombinant COX-1 (Homo sapiens, UniProt P23219); experiment: COX-1 enzyme based assay; assay type: biochemical; conditions: NA = No activity, read-out: % Inhibition in rEnzyme Assay COX-1
Summary of the method: as §1

DU-145 = experiment: Anti-cancer screen (MTT), DU-145; assay type: cell-based; conditions: Homo sapiens, DU-145, 48 hours
Male wistar rats = experiment: Carrageenan induced paw edema test in rat; assay type: in vivo; conditions: oral, 3 hours after carrageenan
Procedure: Carrageenan Induced Paw Edema Test in Rat
The carrageenan paw edema test was performed as described by Winter et al (Proc. Soc. Exp. Biol. Med, 111, 544, 1962). Male wistar rats were selected with body weights equivalent within each group. The rats were fasted for 18 hours with free access to water. The rats were dosed orally with the test compound suspended in the vehicle containing 0.25% carboxymethylcellulose and 0.5% Tween 80. The control rats were administered with vehicle alone. After an hour, the rats were injected with 0.1 ml of 1% Carrageenan solution in 0.9% saline into the sub-plantar surface of the right hind paw. Paw volume was measured using digital plethysmograph before and after 3 hours of carrageenan injection. The average of foot swelling in drug treated animals was compared with that of the control animals. Anti-inflammatory activity was expressed as the percentage inhibition of edema compared with control group [Arzneim-Forsch/Drug Res., 43 (I), 1, 44-50, 1993; Representative results of edema inhibition are shown in the Table VI.

TNF-α = experiment: In vitro measurement of TNF-α in human PBMC (LPS stimulated); assay type: cell-based; conditions: for inhibition at 1 µM: NA = No activity, read-out: TNF-α Inhibition (%) at Conc. (1 μM); for inhibition at 10 µM: read-out: TNF-α Inhibition (%) at Conc. (10 μM)
Summary of the method: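 Healthy-volunteer PBMC (0.5 million/well) in RPMI were pre-incubated with compound 15 min at 37 °C. They were then stimulated with E. coli B4 LPS 1 μg/ml for 18 h at 37 °C, 5% CO2. TNF-α in culture medium was measured by ELISA.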

Animals (male wistar) = experiment: Ulcerogenic potential; assay type: in vivo; conditions: oral, 4 hours after administration
Procedure: In order to evaluate the compound's role on the ulcer formation, the animals were sacrificed and the stomach was taken out and flushed with 1% formalin. Animals (male wistar. 200 g) were fasted for 18 hours with free access to water and the test compounds were suspended in 0.5% Tween 80 and 0.25% CMC (carboxymethylcellulose) solution to make a uniform suspension. After 4 hours of oral administration of test compounds, all the animals were sacrificed by cervical dislocation. The stomach was dissected carefully and filled up with a sterile saline solution and embedded in 6% formalin solution. […] The test compound treated groups were compared with the vehicle treated groups. […]

IL-6 = experiment: In vitro measurement of IL-6 in human PBMC (LPS stimulated); assay type: cell-based; conditions: 10 μM, read-out: IL-6 Inhibition (%) Conc. (10 μM)
Procedure: In Vitro Measurement of Interleukin-6(IL-6)
This assay determins the effect of test compounds on the production of IL-6 in human PBMC (Physiol. Res. 52: 593-598, 2003). Compounds were tested for their ability to inhibit the activity of IL-6 in human PBMC. PBMC were isolated from blood using BD Vacutainer CPT™ Cell preparation tube (BD Bio Science) and suspended in RPMI medium. The test compounds were pre-incubated with PBMC (0.5 million/incubation well) for 15 minutes at 37° C. and then stimulated with Lipopolysaccharide (Escherichia coli: B4; 1 μg/ml) for 18 hours at 37° C. in 5% CO2. The levels of IL-6 in cell culture medium were estimated using enzyme-linked immunosorbent assay performed in a 96 well format as per the procedure of the manufacturer (Cayman Chemical, Ann Arbor, USA).

IL-12 = IL-12 inhibition; assay type: cell-based
PDE4 = PDE4 activity; assay type: biochemical; conditions: source Human U937 cells
Procedure: PDE4 Activity PDE4 inhibition was measured by following a literature assay procedure (Cortizo J et al., Br J Pharmacol., 1993, 108: 562-568. The assay method involves the following conditions. • Source: Human U937 cells • Substrate: 1.01 μM [^3H] camp+camp • Vehicle: 1% DMSO • Pre-Incubation Time/Temperature: 15 minutes at 25° C. • Incubation Time/Temperature. 20 minutes at 25° C. • Incubation buffer: 50 mM Tris-HCl, pH 7.5, 5 mM MgCl2 • Quantitation method: Quantitation of [^3H] Adenosine • Significance criteria: >50% of max stimulation or inhibition The results are tabulated as shown in the table XIII.

purified recombinant COX-1, sequence (P23219 24-599): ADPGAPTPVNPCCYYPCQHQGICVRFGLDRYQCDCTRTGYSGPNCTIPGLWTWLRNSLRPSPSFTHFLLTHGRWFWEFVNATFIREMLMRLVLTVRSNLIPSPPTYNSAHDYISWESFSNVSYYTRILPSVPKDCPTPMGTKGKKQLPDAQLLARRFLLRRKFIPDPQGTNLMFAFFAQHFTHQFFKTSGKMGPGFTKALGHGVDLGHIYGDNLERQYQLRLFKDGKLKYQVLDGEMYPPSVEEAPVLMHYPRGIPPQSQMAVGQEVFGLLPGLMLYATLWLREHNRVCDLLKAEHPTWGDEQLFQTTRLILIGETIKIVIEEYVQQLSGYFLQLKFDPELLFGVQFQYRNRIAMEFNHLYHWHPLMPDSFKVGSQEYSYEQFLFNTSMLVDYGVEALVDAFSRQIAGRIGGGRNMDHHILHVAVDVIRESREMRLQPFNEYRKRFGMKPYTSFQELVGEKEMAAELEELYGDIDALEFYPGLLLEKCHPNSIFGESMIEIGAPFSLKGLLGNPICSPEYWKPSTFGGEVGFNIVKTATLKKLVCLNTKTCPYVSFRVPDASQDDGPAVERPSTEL

inhibition at 1 µM ([1]; 1 μM): 17.3%
inhibition at 10 µM ([1]; 10 μM): 48.9%
GI50 (NCI-H460): 8.5 µM
GI50 (HCT-116): 2.5 µM
inhibition at 1 µM ([2]; 1 μM): 33.8%
inhibition at 10 µM ([2]; 10 μM): 50.4%
GI50 (DU-145): 3.5 µM
Structure (SMILES): CNS(=O)(=O)c1ccc(-c2c(N)nc(C(F)(F)F)nc2-c2ccc(S(C)(=O)=O)cc2)cc1 [Example 2, 4-{4-Amino-6-[4-(methylsulfonyl)phenyl]-2-(trifluoromethyl)pyrimidin-5-yl}-N-methylbenzenesulfonamide]

Structure (SMILES): CNc1nc(C(F)(F)F)nc(-c2ccc(S(C)(=O)=O)cc2)c1-c1ccc(S(=O)(=O)NC)cc1 [Example 5, 4-{4-(Methylamino)-6-[4-(methylsulfonyl)phenyl]-2-(trifluoromethyl)pyrimidin-5-yl}-N-methylbenzenesulfonamide]
Inhibition of edema (%) at 5 mg/kg (Male wistar rats): 14.5%
inhibition at 1 µM (TNF-α): 35.9%
inhibition at 10 µM (TNF-α): 56.3%
Ulcer incidence at 5 mg/kg (Animals (male wistar)): Nil

GI50 (NCI-H460): 3.75 µM
GI50 (HCT-116): 6 µM
GI50 (DU-145): 4 µM
Structure (SMILES): CS(=O)(=O)c1ccc(-c2nc(C(F)(F)F)nc(N3CCN(C(=O)c4ccc([N+](=O)[O-])o4)CC3)c2-c2ccccc2)cc1 [Example 38, 6-[4-(Methylsulfonyl)phenyl]-4-[4-(5-nitro-2-furoyl)piperazin-1-yl]-5-phenyl-2-(trifluoromethyl)pyrimidine]

Structure (SMILES): CS(=O)(=O)c1ccc(-c2nc(C(F)(F)F)nc(N3CCN(S(=O)(=O)c4ccc(F)cc4Cl)CC3)c2-c2ccccc2)cc1 [Example 157, 4-{4-[(2-Chloro-4-fluorophenyl)sulfonyl]piperazin-1-yl}-6-(4-methylsulfonylphenyl)-5-phenyl-2-(trifluoromethyl)pyrimidine]
inhibition at 10 µM (IL-6): 65.7%
inhibition at 1 µM (TNF-α): 33.5%
inhibition at 10 µM (TNF-α): 91.3%
inhibition at 1 µM (IL-12; read-out: IL-12 Inhibition (%) Conc. (1 μM)): 69%
inhibition at 10 µM (IL-12; read-out: IL-12 Inhibition (%) Conc. (10 μM)): 98.3%

Structure (SMILES): NS(=O)(=O)c1cccc(-c2c(-c3ccccc3)nc(C(F)(F)F)nc2N2CCN(C(=O)C(F)(F)F)CC2)c1 [Example 172, 3-{6-Phenyl-4-[4-(trifluoroacetyl)piperazin-1-yl]-2-(trifluoromethyl)pyrimidin-5-yl}benzenesulfonamide]
PDE4 inhibition at 10 μM (%) (PDE4): 87%

Structure (SMILES): Fc1ccc(-c2nc(C(F)(F)F)nc(NC3CC3)c2-c2ccccc2)cc1 [Example 174, N-Cyclopropyl-6-(4-fluorophenyl)-5-phenyl-2-(trifluoromethyl)pyrimidin-4-amine]
PDE4 inhibition at 10 μM (%) (PDE4): 88%

Structure (SMILES): NS(=O)(=O)c1cccc(-c2c(-c3ccccc3)nc(C(F)(F)F)nc2N2CCC(=O)CC2)c1 [Example 178, 3-[6-Phenyl-4-(4-oxopiperidin-1-yl)-2-(trifluoromethyl)pyrimidin-5-yl]benzenesulfonamide]
PDE4 inhibition at 10 μM (%) (PDE4): 84%

Reference: patent US7863446B2, “Heterocycles” (Orchid Research Laboratories Limited, priority 2006, dated 2011)
